The experiment concerns the target ALK2 (Homo sapiens (Human), UniProt Q04771). The experiment is described as follows: ALK2 inhibition, LanthaScreen Eu Kinase Binding Assay (ThermoFisher Scientific / Life Technologies). Particulars: read-out: Measured Ki (IC50) Value for Compounds: IC50. The method, then:
Biochemical assays to measure the inhibitory effects of the compounds were performed by ThermoFisher Scientific (Life Technologies). ALK2 inhibition was tested using LanthaScreen™ Eu Kinase Binding Assay screening protocol.

The structures appear in SMILES notation.

What is called IC50 is the concentration needed to halve the response being measured.

Chain of ALK2 (Q04771 21-509): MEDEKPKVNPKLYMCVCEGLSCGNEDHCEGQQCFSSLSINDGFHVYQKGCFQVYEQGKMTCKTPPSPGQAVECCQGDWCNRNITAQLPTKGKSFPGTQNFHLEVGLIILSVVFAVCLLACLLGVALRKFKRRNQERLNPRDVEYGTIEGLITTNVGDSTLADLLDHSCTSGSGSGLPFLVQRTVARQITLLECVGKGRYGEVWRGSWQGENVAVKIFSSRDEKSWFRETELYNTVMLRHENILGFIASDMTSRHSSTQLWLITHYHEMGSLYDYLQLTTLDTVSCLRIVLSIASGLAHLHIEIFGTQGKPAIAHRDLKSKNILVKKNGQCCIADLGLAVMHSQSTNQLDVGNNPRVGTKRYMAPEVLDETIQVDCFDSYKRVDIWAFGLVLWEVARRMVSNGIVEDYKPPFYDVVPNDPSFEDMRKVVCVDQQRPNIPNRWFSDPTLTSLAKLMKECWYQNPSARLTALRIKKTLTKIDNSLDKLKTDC

Take `Cc1cc2nc(N3CCC[C@H]3CO)nc(Nc3cn(-c4ccc(F)cc4)cn3)c2s1` [Compound 42b, (S)-(1-(4-((1-(4-fluorophenyl)-1H-imidazol-4-yl)amino)-6-methylthieno[3,2-d]pyrimidin-2-yl)pyrrolidin-2-yl)methanol]: the concentration for half-maximal inhibition (IC50) is below 100 nM.
As for `CCn1nc(C)c2c(N3CCC[C@H]3CO)nc(Nc3cn(-c4cc(OC)c(OC)c(OC)c4)cn3)nc21` [Compound 458c, (S)-(1-(1-ethyl-3-methyl-6-((1-(3,4,5-trimethoxyphenyl)-1H-imidazol-4-yl)amino)-1H-pyrazolo[3,4-d]pyrimidin-4-yl)pyrrolidin-2-yl)methanol], the half-maximal inhibitory concentration (IC50) is below 100 nM.
`COc1cc(-n2cnc(Nc3nc(N4CCC[C@@H]4CO)c4ccsc4n3)c2)cc(OC)c1OC` [Compound 309b, (R)-(1-(2-((1-(3,4,5-trimethoxyphenyl)-1H-imidazol-4-yl)amino)thieno[2,3-d]pyrimidin-4-yl)pyrrolidin-2-yl)methanol]: the IC50 was below 100 nM.
In the case of `COc1cc(-n2cnc(Nc3nc(N4C[C@@H]5C[C@@H]5[C@H]4CO)c4cccn4n3)c2)cc(OC)c1OC` [Compound 332b, ((1S,2S,5R)-3-(2-((1-(3,4,5-trimethoxyphenyl)-1H-imidazol-4-yl)amino)pyrrolo[2,1-f][1,2,4]triazin-4-yl)-3-azabicyclo[3.1.0]hexan-2-yl)methanol] it was below 100 nM; in that of `OC[C@@H]1CCCN1c1nc(Nc2cn(-c3ccc4c(c3)OC(F)(F)O4)cn2)c2ccsc2n1` [Compound 432a, (S)-(1-(4-((1-(2,2-difluorobenzo[d][1,3]dioxol-5-yl)-1H-imidazol-4-yl)amino)thieno[2,3-d]pyrimidin-2-yl)pyrrolidin-2-yl)methanol], 100 to 1000 nM.
In the case of `c1ccc(C2CCCN2c2nc(Nc3cn(C4CC4)cn3)c3cccn3n2)nc1` (stereo not drawn) [Compound 27a, N-(1-cyclopropyl-1H-imidazol-4-yl)-2-(2-(pyridin-2-yl)pyrrolidin-1-yl)pyrrolo[2,1-f][1,2,4]triazin-4-amine] it was 100 to 1000 nM; in that of `CN1CCN(c2nc(Nc3cn(-c4ccccc4)cn3)c3cccn3n2)CC1` [Compound 35a, 2-(4-methylpiperazin-1-yl)-N-(1-phenyl-1H-imidazol-4-yl)pyrrolo[2,1-f][1,2,4]triazin-4-amine], 100 to 1000 nM; in that of `COc1ccc(-c2nc(Nc3cn(-c4cc(OC)c(OC)c(OC)c4)cn3)c3cccn3n2)cc1` [Compound 88a, 2-(4-methoxyphenyl)-N-(1-(3,4,5-trimethoxyphenyl)-1H-imidazol-4-yl)pyrrolo[2,1-f][1,2,4]triazin-4-amine], below 100 nM.
In the case of `COc1cc(-n2cnc(Nc3nc4c(c(N5CCC[C@H]5CO)n3)CN(C(=O)OC(C)(C)C)C4)c2)cc(OC)c1OC` [Compound 359c, (S)-tert-butyl 4-(2-(hydroxymethyl)pyrrolidin-1-yl)-2-(1-(3,4,5-trimethoxyphenyl)-1H-imidazol-4-ylamino)-5H-pyrrolo[3,4-d]pyrimidine-6(7H)-carboxylate] it was below 100 nM.
Regarding `COc1cc(-n2cnc(Nc3nc4c(c(N5CCC[C@H]5CO)n3)CCCCC4)c2)cc(OC)c1OC` [Compound 398c, (S)-(1-(2-((1-(3,4,5-trimethoxyphenyl)-1H-imidazol-4-yl)amino)-6,7,8,9-tetrahydro-5H-cyclohepta[d]pyrimidin-4-yl)pyrrolidin-2-yl)methanol], the IC50 is below 100 nM.
For the compound `COc1cc(-n2cnc(Nc3nc(N4CCC[C@H]4CO)nc4cc(N5CCCCC5)ccc34)c2)cc(OC)c1OC` [Compound 358a, (S)-(1-(7-(piperidin-1-yl)-4-((1-(3,4,5-trimethoxyphenyl)-1H-imidazol-4-yl)amino)quinazolin-2-yl)pyrrolidin-2-yl)methanol], the half-inhibitory concentration (IC50) is below 100 nM.
Consider `COc1cc(-n2cnc(Nc3nc(N4CCC[C@H]4CO)nc4cc(C#N)ccc34)c2)cc(OC)c1OC` [Compound 347a, (S)-2-(2-(hydroxymethyl)pyrrolidin-1-yl)-4-((1-(3,4,5-trimethoxyphenyl)-1H-imidazol-4-yl)amino)quinazoline-7-carbonitrile], for which the half-maximal inhibitory concentration (IC50) is below 100 nM.
In the case of `Cn1cnc(-n2cnc(Nc3nc(N4CCCC4c4ccccn4)nn4cccc34)c2)c1` (stereo not drawn) [Compound 81c, N-(1′-methyl-1′H-[1,4′-biimidazol]-4-yl)-2-(2-(pyridin-2-yl)pyrrolidin-1-yl)pyrrolo[2,1-f][1,2,4]triazin-4-amine] it was above 1000 nM; in that of `COc1cc(-n2cnc(Nc3nc(N4CCCC4)nc4ncccc34)c2)cc(OC)c1OC` [Compound 186a, 2-(pyrrolidin-1-yl)-N-(1-(3,4,5-trimethoxyphenyl)-1H-imidazol-4-yl)pyrido[2,3-d]pyrimidin-4-amine], below 100 nM.
With `COC(=O)c1cc(Nc2cn(-c3cc(OC)c(OC)c(OC)c3)cn2)c2occc2c1` [Compound 411b, methyl 7-((1-(3,4,5-trimethoxyphenyl)-1H-imidazol-4-yl)amino)benzofuran-5-carboxylate], the IC50 is 100 to 1000 nM.
In the case of `OC[C@@H]1CCCN1c1nc(Nc2cn([C@H]3C[C@H](O)C3)cn2)c2cccn2n1` [Compound 471e, (trans)-3-(4-((2-((S)-2-(hydroxymethyl)pyrrolidin-1-yl)pyrrolo[2,1-f][1,2,4]triazin-4-yl)amino)-1H-imidazol-1-yl)cyclobutanol] it was below 100 nM; in that of `COc1cc(-n2cnc(Nc3nc(N4CCC[C@H]4C(N)=O)nc4c3CCC4)c2)cc(OC)c1OC` [Compound 292a, (S)-1-(4-((1-(3,4,5-trimethoxyphenyl)-1H-imidazol-4-yl)amino)-6,7-dihydro-5H-cyclopenta[d]pyrimidin-2-yl)pyrrolidine-2-carboxamide], below 100 nM; in that of `COc1cc(-n2cnc(Nc3nc(N4CCC[C@H]4CO)c4ccc(C)cc4n3)c2)cc(OC)c1OC` [Compound 393b, (S)-(1-(7-methyl-2-((1-(3,4,5-trimethoxyphenyl)-1H-imidazol-4-yl)amino)quinazolin-4-yl)pyrrolidin-2-yl)methanol], 100 to 1000 nM.
Take `COc1cc(-n2cnc(Nc3nc(-c4ccccc4C(N)=O)nc4sccc34)c2)cc(OC)c1OC` [Compound 157a, 2-(4-((1-(3,4,5-trimethoxyphenyl)-1H-imidazol-4-yl)amino)thieno[2,3-d]pyrimidin-2-yl)benzamide]: the IC50 was below 100 nM.
Consider `COc1cc(-n2cnc(Nc3nc(N4CCN(CCO)CC4)nc4sccc34)c2)cc(OC)c1OC` [Compound 422a, 2-(4-(4-((1-(3,4,5-trimethoxyphenyl)-1H-imidazol-4-yl)amino)thieno[2,3-d]pyrimidin-2-yl)piperazin-1-yl)ethanol], for which the IC50 is below 100 nM.
In the case of `OC[C@@H]1CCCN1c1nc(Nc2cn(C3CCC3)cn2)c2cccn2n1` [Compound 43a, (S)-(1-(4-((1-cyclobutyl-1H-imidazol-4-yl)amino)pyrrolo[2,1-f][1,2,4]triazin-2-yl)pyrrolidin-2-yl)methanol] it was below 100 nM; in that of `COc1cc(F)c(CC(=O)N2CCN(c3nc(Nc4cn(-c5ccccc5)cn4)c4ccsc4n3)CC2)c(F)c1` [Compound 45d, 2-(2,6-difluoro-4-methoxyphenyl)-1-(4-(4-((1-phenyl-1H-imidazol-4-yl)amino)thieno[2,3-d]pyrimidin-2-yl)piperazin-1-yl)ethanone], 100 to 1000 nM; in that of `OC[C@@H]1CCCN1c1nc(Nc2cn(-c3cccc(OC(F)(F)F)c3)cn2)c2cccn2n1` [Compound 330b, (S)-(1-(4-((1-(3-(trifluoromethoxy)phenyl)-1H-imidazol-4-yl)amino)pyrrolo[2,1-f][1,2,4]triazin-2-yl)pyrrolidin-2-yl)methanol], below 100 nM.
On to `COc1cc(-n2cnc(Nc3nc(N4CCC[C@H]4CO)nc4sc(C(=O)OCC(C)C)cc34)c2)cc(OC)c1OC` [Compound 92d, (S)-isobutyl 2-(2-(hydroxymethyl)pyrrolidin-1-yl)-4-((1-(3,4,5-trimethoxyphenyl)-1H-imidazol-4-yl)amino)thieno[2,3-d]pyrimidine-6-carboxylate], for which the half-inhibitory concentration (IC50) is 100 to 1000 nM.
In the case of `COc1cc(-n2cnc(Nc3nc(N4CCC[C@H]4CO)c4c(C)nn(C5CCCCO5)c4n3)c2)cc(OC)c1OC` (stereo partly drawn) [Compound 402b, ((2S)-1-(3-methyl-1-(tetrahydro-2H-pyran-2-yl)-6-((1-(3,4,5-trimethoxyphenyl)-1H-imidazol-4-yl)amino)-1H-pyrazolo[3,4-d]pyrimidin-4-yl)pyrrolidin-2-yl)methanol], the half-maximal inhibitory concentration (IC50) is below 100 nM.
As to `COc1cc(-n2cnc(Nc3nc(N4CCC[C@H]4C(N)=O)nc4ccoc34)c2)cc(OC)c1OC` [Compound 190a, (S)-1-(4-((1-(3,4,5-trimethoxyphenyl)-1H-imidazol-4-yl)amino)furo[3,2-d]pyrimidin-2-yl)pyrrolidine-2-carboxamide], the IC50 was below 100 nM.
As to `COc1cc(-n2cnc(Nc3nc(N4CCC[C@H]4CO)c4ccc(C5=CCNCC5)cc4n3)c2)cc(OC)c1OC` [Compound 385c, (S)-(1-(7-(1,2,3,6-tetrahydropyridin-4-yl)-2-((1-(3,4,5-trimethoxyphenyl)-1H-imidazol-4-yl)amino)quinazolin-4-yl)pyrrolidin-2-yl)methanol], the concentration for half-maximal inhibition (IC50) is below 100 nM.
In the case of `COc1cc(-n2cnc(Nc3nc4c(c(N5CCC[C@H]5CO)n3)CNCC4)c2)cc(OC)c1OC` [Compound 181d, (S)-(1-(2-((1-(3,4,5-trimethoxyphenyl)-1H-imidazol-4-yl)amino)-5,6,7,8-tetrahydropyrido[4,3-d]pyrimidin-4-yl)pyrrolidin-2-yl)methanol] it was below 100 nM.
In the case of `OC[C@@H]1CCCN1c1nc(Nc2cn(-c3ccccc3)cn2)c2ccsc2n1` [Compound 31c, (S)-(1-(4-((1-phenyl-1H-imidazol-4-yl)amino)thieno[2,3-d]pyrimidin-2-yl)pyrrolidin-2-yl)methanol] it was below 100 nM.
In the case of `COc1cc(-n2cnc(Nc3nc(N4CCC[C@H]4CO)nc4sccc34)c2)cc(OC)c1OC` [Compound 84b, (S)-(1-(4-((1-(3,4,5-trimethoxyphenyl)-1H-imidazol-4-yl)amino)thieno[2,3-d]pyrimidin-2-yl)pyrrolidin-2-yl)methanol] it was below 100 nM.

Source of the values: patent US11661426B2, “Imidazole-containing inhibitors of ALK2 kinase” (BioCryst Pharmaceuticals, Inc., priority 2017, dated 2023).
